According to patent US9464326B2, “Total and phosphorylated IL-1 receptor-associated kinase-1 and IL-1 receptor-associated kinase-4 as a biomarker for cancer progression and chemotherapy resistance” (University of Maryland, Baltimore, priority 2012, dated 2016):

Tests used:
CCRF-CEM = assay: Proliferation (3H-thymidine) of CCRF-CEM; assay type: cell-based, human
Text: (§1) CCRF-CEM, CEM/C1, CEM/C2, CEM-C7, Jurkat, Loucy, Molt-4, HSB-2, SUP-T1, Hut 78, HH, Hut 102, MO, and H9 T-leukemia and T-lymphoma cell lines were purchased from the American Type Culture Collection (Manassas, Va., USA). All of the cell lines were initially expanded and cryopreserved within one month of receipt. Cells were typically used for 6 months at which time a fresh vial of cryopreserved cells was used. Total T cells from healthy donors were isolated via negative selection followed by positive selection using a CD3+ selection kit (Invitrogen, Carlsbad, Calif.). T cells were isolated from patients with T-ALL bone marrow or peripheral blood samples containing more than 70% leukemia cells using a CD2+ isolation kit (STEMCELL Technologies, Vancouver, Canada). All tissues were collected under institutional IRB-approved protocols and all participants gave written informed assent/consent. For in vitro experiments, T-ALL cells were cultured in AIM-V medium supplemented with 20% human AB serum in the presence of recombinant human stem cell factor (50 ng/mL; Amgen, Thousand Oaks, Calif.), insulin (20 nM; Sigma-Aldrich, St Louis, Mo., USA) and IL-7 (50 ng/mL; R&D Systems, Minneapolis, Minn., USA). In other experiments, protein lysate was collected using the Full Moon Biosystems (Sunnyvale, Calif., USA) buffer prior to protein examination by western blot or protein array.
(§2) Cells were cultured in a 96-well plate (Corning Costar, Corning, N.Y., USA) with various concentrations of TLR ligands 1-9, starting at 10 μg/ml, in a final volume of 200 ul. TLR ligands were diluted 2-fold. Cell lines (25-40×10^3/well) were cultured for 54 hours, whereas fresh patient-derived T-ALL cells (200×10^3/well) were cultured for 30 hours prior to adding [^3H]-thymidine for 18 hours. After this time point, cells were harvested with a Packard Filter-Mate-96 cell harvester (Perkin Elmer, Waltham, Mass., USA) and counted on Packard Top Count-NXT (Perkin Elmer, Waltham, Mass., USA). Results were expressed as average counts per minute (cpm). In some experiments CCRF-CEM cells were pre-treated with TLR1-TLR2 ligand (Pam3CysK4; 2.5 ug/ml) for 48 hrs, washed, and then cultured in the presence of varying concentrations of FBS. Forty-eight hours later, proliferation (±SD) was determined by ^3H-thymidine incorporation. Alternatively, apoptosis was measured by flow cytometry after staining cells with Annexin-V (BD Pharmingen, San Diego, Calif., USA) and propidium iodide (Sigma). Cell number was counted under microscopy by staining cells with trypan blue.
The following TLR ligands were purchased from Invivogen (San Diego, Calif., USA): tripalmitoyl-S-(bis(palmitoyloxy)propyl)-Cys-Ser-(Lys)3-Lys (TLR1-2); Poly I:C (TLR3); ultrapure S. Minnesota Lipopolysaccharide (TLR4); S. typhimurium flagellin (TLR5); FSL-1 (TLR2/6); Imiquimod (TLR7); ssRNA40/Lyovec (TLR8); CpG-ODN 2006 (TLR9).

[1] = system: T-ALL cells from patients; assay: Proliferation (3H-thymidine) of patient T-ALL cells; assay type: cell-based, human
Text: as §1, with “In other experiments, protein lysate was collected using the Full Moon Biosystems (Sunnyvale, Calif., USA) buffer prior to protein examination by western blot or protein array.” left out
as §2, with “TLR ligands were diluted 2-fold. Cell lines (25-40×10^3/well) were cultured for 54 hours, whereas fresh patient-derived T-ALL cells (200×10^3/well) were cultured for 30 hours prior to adding [^3H]-thymidine for 18 hours.” left out, “In some experiments CCRF-CEM cells were pre-treated with TLR1-TLR2 ligand (Pam3CysK4; 2.5 ug/ml) for 48 hrs, washed, and then cultured in the presence of varying concentrations of FBS.” left out

CCRF-CEM cells = assay: CCRF-CEM T-ALL numbers in NSG mice (flow cytometry); assay type: in vivo
Experimental: CCRF-CEM (2×10^6) cells were injected intravenously (i.v.) into female NOD.Cg-Prkdc^scid Il2rg^tm1WJl/SzJ IL2RG (NSG) mice (Jackson Laboratories, Bar Harbor, Me.). […] In some experiments mice were injected i.v. with TLR1-TLR2 ligand (2.5 μg) two days after injecting cells. In other experiments mice were injected intraperitoneally (i.p.) with IRAK-1,-4 inhibitor (10 mg/kg) 3, 6, and 9 days (CCRF-CEM cells) or 7, 10, and 13 days (patient T-ALL cells) after detecting CD7^+ T-ALL cells in circulation. The numbers of T-ALL cells in the bone marrow, spleen, liver, and in circulation were determined by staining cells with anti-human CD7 and/or CD5. To compare T-ALL numbers between groups, 10 μl of calibration microbeads (BD Pharmingen) were added to 50 μl of blood (or marrow or spleen suspensions) and the flow cytometry instrument gates were set to count a constant number of beads.
The therapeutic efficacy of IRAK-1,-4 inhibitor was examined in mice with T-ALL. NSG mice were injected (i.v.) with the human T-ALL cell line CCRF-CEM. Mice were intraperitoneally (i.p.) injected with IRAK-1,-4 inhibitor 3, 6, and 9 days after T-ALL cells were detected in the circulation. The number of T-ALL cells in various tissues was determined four days after the final IRAK-1,-4 inhibitor injection by staining cells with human-specific anti-CD7 antibodies and analyzing by flow cytometry. The number of T-ALL cells was counted after normalization to calibration beads.
The physiological significance of activating TLR-IRAK signaling and T-ALL expansion was examined in vivo. NSG mice harboring CCRF-CEM cells were injected with either TLR1-TLR2 ligand or PBS. One week later the numbers of CD5+CD7+ T-ALL cells in bone marrow and spleen were determined by flow cytometry (FIG. 5, left). To normalize the T-ALL cell count between mice, an equal volume of calibration beads was added to blood samples and the instrument gates were set to count a constant number of beads.

[2] = 10 mg/kg i.p. days 3, 6, 9, FIG. 17
[3] = 10 mg/kg i.p. days 3, 6, 9, vs DMSO or untreated, p<0.05
[4] = TLR1-TLR2 ligand 2.5 μg i.v. vs PBS, p<0.05, FIG. 5

| Molecule | reduction of proliferation of TLR1-TLR2-stimulated cells (CCRF-CEM; IRAK-1,-4 inhibitor 5 μM with TLR1-TLR2 agonist 1 μg/ml, 48 h, FIG. 3A) | lowest concentration effective in reducing proliferation (CCRF-CEM; concentration-dependent, 48 h, FIG. 3B) | proliferation of patient T-ALL samples ([1]; samples with phosphorylated IRAK-1,-4, vs equal volume DMSO, FIG. 6D) | T-ALL cell numbers in the liver (CCRF-CEM cells; [2]) | T-ALL cell numbers in the spleen (CCRF-CEM cells; [2]) | number of CD7+ T-ALL cells in circulation (CCRF-CEM cells; [3]) | number of CD7+ T-ALL cells in the bone marrow (CCRF-CEM cells; [3]) | Proliferative effects of TLR ligands (CCRF-CEM; 3H-thymidine uptake, 72 h) | concentration at which cells proliferated in response to the ligand (CCRF-CEM; FIG. 1A) | effect on proliferation (in words) (CCRF-CEM; FIG. 1A) | TLR ligand concentration in parentheses below the symbol (CCRF-CEM; no unit in table (μg/ml)) | proliferation of patient T-ALL samples ([1]; five T-ALL patient samples, TLR1-TLR2 ligand, p<0.01, FIG. 6B) | concentrations giving increased proliferation ([1]; responding T-ALL patient samples, FIG. 6B) | T-ALL cell number (CD5+CD7+) in the bone marrow (CCRF-CEM cells; [4]) | T-ALL cell number (CD5+CD7+) in the spleen (CCRF-CEM cells; [4]) |
| --- | --- | --- | --- | --- | --- | --- | --- | --- | --- | --- | --- | --- | --- | --- | --- |
| O=C(Nc1nc2ccccc2n1CCN1CCOCC1)c1cccc([N+](=O)[O-])c1 [IRAK-1,-4 inhibitor] | 72% | 1.5 µM | Every sample exhibited reduced proliferation | only moderately reduced | only moderately reduced | significantly reduced | significantly reduced |  |  |  |  |  |  |  |  |
| tripalmitoyl-S-(bis(palmitoyloxy)propyl)-Cys-Ser-(Lys)3-Lys [Pam3Cysk4] |  |  |  |  |  |  |  | + (enhanced proliferation by 25% or greater) | 1.2 µg/mL | proliferated | (1.2) | Two of five samples exhibited increased proliferation | above 1.25 μg/ml | significantly augmented | significantly augmented |
